Source: patent US11351229B2, “Combination therapies for treating infantile spasms and other treatment resistant epilepsies” (Baylor College of Medicine, priority 2017, dated 2022)
Read-outs that look alike come from different tables or passages of the source.

Tests used:
[1] = tested on: epileptic spasms (TTX rat model of infantile spasms); type: in vivo
[2] = tested on: IGF-1R-PI3K-AKT and IGF-1R-Ras-ERK signaling cascades; assay: Western blots of IGF-1R signaling in neocortex (Example 9); type: in vivo
Method: Briefly, brains were quickly removed from the skull under anesthesia and the cortex dissected free from adhering tissue. It was then snap frozen on dry ice and later homogenized by sonication. Protein concentrations were determined by the BCA assay. Equal quantities of protein (10 μg) from each sample were resolved by polyacrylamide gel electrophoresis. The primary antibodies used were against: pAKT Thr308, pAkt Ser473, pS6 Ser240/244, AKT, S6, IGF-1R. Secondary antibodies were conjugated to horseradish peroxidase and visualization of immunoreactive bands was produced by enhanced chemiluminescence and then exposed to Kodak Biomax film. After digitization, band intensity was quantified with Image J Image software. Blots were also probed with antibodies to GAPDH, which served as a loading control. Band intensity was normalized to control values on the same blot.
The experiments were performed using N=5 for both control and epileptic groups. Animals were 6 weeks old and sacrificed 2 hours after treatment.
Animals (6 weeks old) were treated with 50 mg/kg of PPP or DMSO vehicle. Four hours later, they received 20 mg/kg of (1-3)IGF-1 or vehicle. Two hour later the neocortex was collected.
Vigabatrin (125 mg/kg) was injected 2 and 24 hours before collecting neocortex. Western blots from 2 animals and controls are shown in upper panel (FIG. 25A) for bar graphs n=6. For the combination study, the animals were administered vigabatrin (125/mg/kg), and (1-3)IGF-1 (20 mg/kg) was injected 30 min before collecting cortex in the combination group and the (1-3)IGF-1-only group. Controls received vehicle only. The results are illustrated in FIG. 25B.

[3] = tested on: hypsarrhythmia (abnormal EEG pattern); assay: EEG analysis for hypsarrhythmia in rats with spasms; type: in vivo, rat; settings: VGB 325 mg/kg/day, 2 weeks; 5 rats with pattern at baseline
[4] = human, in vivo; cited from earlier work
[5] = Plasma concentration of vigabatrin alone or co-administered with (1-3)IGF-1; type: in vivo, rat; settings: vigabatrin 125 mg/kg, (1-3)IGF-1 20 mg/kg, rats
Method: FIG. 21 illustrates plasma concentration for vigabatrin (administered to rats at 125 mg/kg) when administered alone or in combination with (1-3)IGF-1 (20 mg/kg).

[6] = each drug alone: VGB 250 mg/kg/day or (1-3)IGF-1 10 mg/kg/day, 2 weeks

## rhIGF-1: rhIGF-1 from Peprotech; the full length growth factor
[1]; rhIGF-1 1 mg/kg/day, 3 weeks
  rats that became free of spasms: One of the 5
  rats that continued to have spasms after treatment: 4 of 5
  reduction of spasm counts, on average: 40%

## C=CC(N)CCC(=O)O (stereo not shown) [vigabatrin, γ-vinyl-GABA]
[2]; vigabatrin 125 mg/kg, 2 and 24 hours before collecting neocortex
  activation of IGF-1R signaling: does not activate
[2]; vigabatrin 125 mg/kg, (1-3)IGF-1 20 mg/kg 30 min before collecting cortex
  effect on (1-3)IGF-1-induced IGF-1R signaling: does not alter
[1]; VGB 325 mg/kg/day i.p., 2 weeks, vs vehicle controls
  spasm counts (in words): dramatic reduction in spasm counts
[1]; [6]
  effect on spasm counts (in words): modest effects on spasm counts
  presence of spasms after treatment, all rats: continued to have spasms
[1]; individual administration: vigabatrin 125 mg/kg/day or (1-3)IGF-1 20 mg/kg/day, 2 weeks
  effect on % animals with spasms: no measurable effect
[1]; individual administration: vigabatrin 250 mg/kg/day or (1-3)IGF-1 10 mg/kg/day, 2 weeks
  effect on % animals with spasms: no measurable effect
[3]
  hypsarrhythmia after treatment: eliminated in all of them
[4]
  adults with visual field loss: 52%
  children with visual field loss: 34%
  vigabatrin-treated subjects with visual field loss: 44%

## NCC(=O)N1CCC[C@H]1C(=O)N[C@@H](CCC(=O)O)C(=O)O [(1-3)IGF-1, Gly-Pro-Glu]
[5]
  effect of co-administration on vigabatrin pharmacokinetics (plasma concentration): no discernible effect

## COc1cc([C@@H]2c3cc4c(cc3[C@H](O)[C@H]3COC(=O)[C@@H]23)OCO4)cc(OC)c1OC [picropodophyllin, (5R,5aR,8aS,9R)-5-hydroxy-9-(3,4,5-trimethoxyphenyl)-5a,6,8a,9-tetrahydro-5H-[2]benzofuro[5,6-f][1,3]benzodioxol-8-one]
[2]; 50 mg/kg PPP, 4 hours before 20 mg/kg (1-3)IGF-1, neocortex collected 2 hours later
  effect on (1-3)IGF-1 induced activation of AKT: blocks
